The source of these data is patent publication US6573278B2, “Aryl sulfonamides and analogues thereof and their use in the treatment of neurodegenerative diseases” (Bayer Aktiengesellschaft, priority 1997, dated 2003).

One data set deals with T1, rat CB1 receptor (Rattus norvegicus, UniProt P20272).
T1 construct: contains an open reading frame of 1419 base pairs which corresponds to a protein of 473 amino acids; expressed in transfected cells; host or cells: CHOluc9 cells, stably transfected with plasmid CMV-RH (pRc/CMV)
Kind of data set: CB1 luciferase reporter gene test (CHOluc9 cells, forskolin-stimulated). Conditions: CHOluc9 cells with rat CB1, forskolin. The class given is cell-based. The method, then: CB1—Luciferase Reporter Gene Test
1. Cloning of the Rat Cannabinoid Receptor CB1
Total RNA from rat brain (the tissue was taken from freshly killed animals and shock-frozen in liquid nitrogen) was isolated by acidic guanidinium thiocyanate/phenol/chloroform extraction (J. Biol. Chem. 1979, 18, 5294) and converted into cDNA by means of reverse transcriptase and random primers (in each case from Invitrogen). The polymerase chain reaction (PCR, conditions: 4 min 94° C., 1×; 1 min 94° C.; 2 min 53° C.; 1 min 72° C., 50 cycles; 1 min 94° C., 2 min 53° C., 4 min 72° C., 1×) was carried out in a Perkin Elmer thermocycler using the enzyme Taq polymerase (Perkin Elmer); the oligonucleotide primers employed (bases 99 to 122: 5′→3′, “down”; 1556-1575: 3′←5′, “up”) were derived from the published sequence of the rat cannabinoid receptor (Nature 1990, 346, 561) and were synthesized on a DNA synthesizer, model 1380 from Applied Biosystems. One part of the PCR reaction was separated in a 1% strength agarose gel in 1× TBE buffer and then stained with ethidium bromide, only one band having the expected length being visible (approximately 1.5 kb). This PCR product was subcloned into the TA cloning vector (Invitrogen) and the nucleotide sequence of the inserts was determined by the dideoxynucleotide chain termination reaction using T7DNA polymerase (Sequenase, USA/Amersham). The insert has a length of 1477 base pairs and contains an open reading frame of 1419 base pairs which corresponds to a protein of 473 amino acids. The number of base pairs, the position of the open reading frame and the number of amino acids agree with the published sequence. Computer analyses were carried out with the aid of the GCG software suite (Genetic Computer Group). The cDNA insert was subcloned into the expression vector pRc/CMV after partial digestion with HindIII and NotI (Biolabs). This construct (plasmid CMV-RH) was employed for transfection experiments.
2. Stable Transfection of the CHOluc9 Reporter Cells
CHOluc9 cells were cultured in 50% Dulbecco's modified Eagle medium/50% F-12 (DMEM/F12) which contained 10% foetal calf serum (FCS). Transfections were prepared in 6-well plates. 7.5 μg of Qiagen-purified CMV-RH plasmid DNA were added per […] with the DOTAP transfection system, corresponding to the experimental protocol of the manufacturer (Boehringer Mannheim). Transfected cells were selected using 1 mg/ml G418 and individual clones were obtained by limiting dilution in 96-well plates. Cell lines which express the cannabinoid receptor were identified for the inhibition of reporter gene expression after incubation with the cannabinoid receptor agonist, WIN-55,212-2, in the presence of forskolin. Several stable transfected and subcloned cell lines were further characterized by means of RT-PCR, as described under 1.
3. Test Optimization and Pharmacological Characterization of the CHOCB1 Reporter Cell Line
With the aim of high sensitivity and reproducibility, low variance and high suitability for carrying out on the robotic system, the luciferase test was optimized by variation of several test parameters, such as, for example, cell density, duration of the growth phase and the test incubation, forskolin concentration, medium composition. […]
A general note: In a reporter assay the amount or activity of a reporter protein is the signal.

The target of data set [1] is T2, CB1 receptor (rat cortex membranes) (Rattus norvegicus, UniProt P20272).
T2 construct: from tissue; host or cells: rat cortex membranes
The data set can be described thus: Binding studies on rat cortex membranes. Conditions: read-out: Ki, affinity for the CB1 receptor (rat cortex membranes). The method, then: Binding Studies on Rat Cortex Membranes
Membrane protein is prepared from different tissues or from cells by standard methods. Buffer, labelled ligand, DMSO or test substance are pipetted together, then 100 μg of protein are added, and the mixture is well mixed and incubated in a water bath at 30° C. for 60 min. After expiry of the incubation time, the reaction is stopped by addition of ice-cold incubation buffer to each tube. After filtering off, washing is carried out with ¾ ml of incubation buffer. The filters are transferred to minivials and the radioactivity is determined in a scintillation counter. Affinity for the CB1 receptor (rat cortex membranes)

Data set [2] in a line: Rat hypothermia, agonism testing. The class given is in vivo. To be noted: i.v. As for the experimental part:
Five minutes after determination of the basal body temperature via an oesophageal temperature probe, the test substance is administered (i.v.). A control group receives only the solvent for the test substances, likewise i.v. The body temperature is measured 7.5, 15, 30 and 60 minutes after i.v. administration. The group size per dose is 5-7 animals (rats).
Rat hypothermia—Agonism testing

Data set [3] deals with permanent focal cerebral ischaemia (MCA-O). Kind of data set: Permanent focal cerebral ischaemia in the rat (MCA-O). The class given is in vivo. To be noted: infarct size after 7 days. As for the experimental part:
Permanent Focal Cerebral Ischaemia in the Rat (MCA-O)
Under isoflurane anaesthesia, the median cerebral artery is exposed on one side and the latter and its side branches are irreversibly sealed by means of electrocoagulation. As a result of the intervention a cerebral infarct is formed. During the operation, the body temperature of the animal is kept at 37° C. After wound closure and wearing off of the anaesthesia, the animals are again released into their cage. The administration of substance is carried out according to different time schemes and via different administration routes (i.v., i.p.) after occlusion. The infarct size is determined after 7 days. To do this, the brain is removed, worked up histologically and the infarct volume is determined with the aid of a computer-assisted analysis system.
Activity in the model of permanent focal cerebral ischaemia (MCA-O)

Data set [4] deals with subdural haematoma in the rat (SDH). The data set can be described thus: Subdural haematoma in the rat (SDH). The class given is in vivo. As for the experimental part: Subdural Haematoma in the Rat (SDH)
Under anaesthesia, the animal's own blood is injected subdurally on one side An infarct is formed under the haematoma. Substance administration is carried out according to different time schemes and via different administration routes (i.v., i.p.) The determination of the infarct size is carried out as described in the model of permanent focal ischaemia in the rat (MCA-O)
Activity in the model “subdural haematoma in the rat (SDH)”

Setting [5] is: 0.1 mg/kg, i.v. bolus injections directly, 2 and 4 hours after occlusion.
[6] abbreviates: 0.03 mg/kg/h, i.v. continuous infusion directly up to 4 hours after occlusion.

Structures can show the parent of a compound that is named as a salt. Marks after values point to notes of the source that are not given here.

T1 sequence (P20272 whole entry): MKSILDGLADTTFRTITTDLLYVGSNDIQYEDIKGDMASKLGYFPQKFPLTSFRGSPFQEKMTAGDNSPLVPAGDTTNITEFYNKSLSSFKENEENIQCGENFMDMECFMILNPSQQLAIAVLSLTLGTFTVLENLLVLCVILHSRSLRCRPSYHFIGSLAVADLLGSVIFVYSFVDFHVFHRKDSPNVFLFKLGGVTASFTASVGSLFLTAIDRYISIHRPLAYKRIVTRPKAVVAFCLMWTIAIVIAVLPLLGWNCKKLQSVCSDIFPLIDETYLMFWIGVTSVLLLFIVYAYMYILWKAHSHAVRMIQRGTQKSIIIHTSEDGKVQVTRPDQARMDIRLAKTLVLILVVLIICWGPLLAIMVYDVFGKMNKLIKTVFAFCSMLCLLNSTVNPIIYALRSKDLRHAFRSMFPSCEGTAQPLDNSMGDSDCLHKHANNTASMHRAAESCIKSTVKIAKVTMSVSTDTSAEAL
T2 sequence (P20272 whole entry): as above

As usually defined, the melting point is the temperature of the solid-liquid transition. `CCCCC(=O)Nc1ccc(Oc2cccc3ccccc23)cc1` returned a melting point of 80 °C.

Regarding `CCCCS(=O)(=O)Nc1ccc([S+]([O-])c2cccc3ccccc23)cc1` (stereo not drawn), the melting point came to 161 °C.

`CCC(=O)Nc1ccc(Oc2ccc(NS(=O)(=O)Cc3ccccc3)cc2)c2ccccc12`: the melting point worked out at 180 °C.

What is called IC50 is the concentration at which inhibition is half-maximal. A low value points to greater potency. As a reminder, the Ki is a measure of affinity in units of concentration, obtained from inhibition or displacement. For the molecule `O=S(=O)(Cc1ccccc1)Nc1cccc(Oc2cccc3ccccc23)c1` [Example 51], the melting point is 139.5 °C. For the same molecule, the IC50 against rat CB1 receptor is 0.9 nM. Further, the inhibition constant Ki in data set [1] stood at 41 nM. Further, in data set [2], the “ED−1° C., effective dose for 1° C. body temperature reduction” value was 0.1 ^b) mg/kg. The “% Reduction in the infarct volume” value in data set [3] (setting [5]) stood at 24%. For the same molecule, the “% Reduction in the infarct volume” value in data set [4] (0.01 mg/kg/h, i.v. continuous infusion directly up to 4 hours post-trauma) is on record as 54%.

`CCCOS(=O)(=O)Nc1ccc(Oc2cccc3ccccc23)cc1` registered a melting point of 95 °C.

In turn, `CCCNS(=O)(=O)Nc1ccc(Oc2cccc3ccccc23)cc1` gave a melting point of 113 to 115 °C.

As to `O=S(=O)(NCc1ccccc1)c1ccc(Oc2cccc3ccccc23)cc1`, the melting point lay within 144 to 146 °C.

Consider `O=S(=O)(Cc1ccccc1)Nc1ccc(Oc2cccc3ccccc23)nc1` [Example 33], for which the melting point is 161 to 162 °C. Further, on rat CB1 receptor, the 50% inhibitory concentration (IC50) was determined as 10 nM. Further, the inhibition constant (Ki) in data set [1] was 420 nM. Moreover, in data set [2], the “ED−1° C., effective dose for 1° C. body temperature reduction” value is on record as 0.6 ^b) mg/kg. In data set [3] (setting [5]), the “% Reduction in the infarct volume” value came to 33%. Moreover, the “% Reduction in the infarct volume” value in data set [4] (setting [5]) is recorded as 42%.

As to `CCCCCS(=O)(=O)N(c1ccc(Oc2cccc3c2CCNC3)cc1)S(=O)(=O)CCCCC` (as salt: hydrochloride), the melting point stood at 162 °C.

For the molecule `O=S(=O)(CCCCl)Nc1ccc(Oc2cccc3ccccc23)cc1` [Example 65], the melting point came out at 115 °C. Further, inhibition at rat CB1 receptor was half-maximal at 13 nM (IC50). Also, the Ki in data set [1] turned out to be 250 nM. The “ED−1° C., effective dose for 1° C. body temperature reduction” value in data set [2] is on record as 1.0 ^b) mg/kg. The “% Reduction in the infarct volume” value in data set [3] (0.01 mg/kg/h) is recorded as “(47) %”. Further, the “% Reduction in the infarct volume” value in data set [3] (setting [6]) is 37%. Also, the “% Reduction in the infarct volume” value in data set [4] (setting [5]) amounted to 53%. The “% Reduction in the infarct volume” value in data set [4] (0.3 mg/kg/h, i.v. continuous infusion directly up to 4 hours post-trauma) was “(65) %”.

Turning to `CCCCCS(=O)(=O)Oc1ccc(Oc2cccc3ccccc23)cc1` [Example 99], at rat CB1 receptor, half-maximal inhibition (IC50) required 2.9 nM. Also, the “ED−1° C., effective dose for 1° C. body temperature reduction” value in data set [2] is reported as 0.6 ^b) mg/kg.

The molecule `CCCCCS(=O)(=O)Oc1ccc(Oc2cccc3c2CCNC3)cc1` displayed a melting point of 143 °C.

On to `CCCCCS(=O)(=O)Nc1ccc(Oc2cccc3c2CC(CO)(CO)C3)cc1`, for which the melting point is 135 to 137 °C.

`CCCCS(=O)(=O)Nc1ccc(S(=O)(=O)c2cccc3ccccc23)cc1`: the melting point amounted to 180 °C.

For `CCCCS(=O)(=O)Nc1ccc(Oc2cccc3ccccc23)cc1` [Example 1, 1-N-(1-Butylsulfonyl)amino-4-(naphthyl-1-oxy)benzene], the melting point fell in the range of 108 to 109 °C. The molecule also yielded a 50% inhibitory concentration (IC50) against rat CB1 receptor of 15 nM. Besides, the Ki in data set [1] turned out to be 590 nM. Further, in data set [2], the “ED−1° C., effective dose for 1° C. body temperature reduction” value is reported as 1.0 ^b) mg/kg. Besides, in data set [3] (setting [6]), the “% Reduction in the infarct volume” value came to 35%. Further, in data set [4] (setting [5]), the “% Reduction in the infarct volume” value came out at 54%. The “% Reduction in the infarct volume” value in data set [4] (1.0 mg/kg, i.v. bolus injections directly, 2 and 4 hours after occlusion) was “(84) %”.

The molecule `CCCCCS(=O)(=O)Nc1ccc(Oc2cccc3c2CCN(CCCC)C3)cc1` gave a melting point of 187 °C.

In turn, `CCCC[S+]([O-])Nc1ccc(Oc2cccc3ccccc23)cc1` (stereo not drawn) showed a melting point of 138 to 139 °C.

Regarding `Nc1ccc(Oc2ccc(NS(=O)(=O)Cc3ccccc3)cc2)c2ccccc12` (as salt: hydrochloride), the melting point was determined as 252 °C.
